According to patent US10233186B2, “Inhibitors of activin receptor-like kinase” (BLUEPRINT MEDICINES CORPORATION, priority 2016, dated 2019):

Columns and labels:
[1] = target: T1, ALK2 R206H (GST-tagged mutant ALK2) (Homo sapiens, UniProt Q04771, R206H); experiment: ALK binding assay (LANTHASCREEN TR-FRET competitive binding, displacement of Kinase Tracer 178); conditions: ALK2 R206H, LANTHASCREEN TR-FRET competitive binding; read-out: Binding Assay (IC50)
T1 construct: purchased Carna Bioscience or ThermoFisher 09-148 or PV6232
T1 sequence (Q04771 21-509 R206H): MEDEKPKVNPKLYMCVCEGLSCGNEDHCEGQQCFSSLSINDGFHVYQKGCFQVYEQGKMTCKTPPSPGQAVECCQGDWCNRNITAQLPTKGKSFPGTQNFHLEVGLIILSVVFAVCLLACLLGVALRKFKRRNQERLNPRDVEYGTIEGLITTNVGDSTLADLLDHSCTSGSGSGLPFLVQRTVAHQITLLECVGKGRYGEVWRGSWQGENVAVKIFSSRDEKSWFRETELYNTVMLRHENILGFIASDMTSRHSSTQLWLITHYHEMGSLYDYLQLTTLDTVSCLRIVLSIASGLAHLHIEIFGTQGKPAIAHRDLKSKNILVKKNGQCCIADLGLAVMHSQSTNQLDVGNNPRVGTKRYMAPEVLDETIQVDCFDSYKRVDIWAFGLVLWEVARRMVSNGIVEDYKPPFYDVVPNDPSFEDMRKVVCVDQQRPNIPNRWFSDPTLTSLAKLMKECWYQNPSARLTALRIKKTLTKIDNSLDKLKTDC

human ALK2 R206H = target: T2, human ALK2 R206H (Homo sapiens, UniProt Q04771, R206H); experiment: Cell-based ALK2-R206H cell activity assay (Smad1-Ser463/Ser465 phosphorylation by AlphaLISA in HEK293-ALK2-R206H cells); conditions: read-out: Cell Line (Cell Assay IC50)
T2 construct: expressed in transfected cells; host or cells: HEK293 (ATCC CRL1573), lentivirus transduction, blasticidin selection
T2 sequence (Q04771 21-509 R206H): T1 sequence (Q04771 21-509 R206H)
How it was run: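 Stable HEK293 cells expressing C-terminally FLAG-tagged human ALK2 R206H (lentiviral, blasticidin-selected) were treated with compounds in 10-point, 3-fold dilutions from 10 μM or 1 μM top, in duplicate. Smad1 Ser463/Ser465 phosphorylation was read by AlphaLISA.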

CC(C)N1CCC(c2ccc(-c3cc4c(N5CCN(C(=O)C6CC6)CC5)ccnn4c3)cc2F)CC1 [Compound 345]
IC50 [1]: < 10 nM | IC50 (human ALK2 R206H): < 100 nM

CC(C)N1CC[C@@H](c2ccc(-c3cc4c(N5CCN(C(=O)C6CC6)[C@H](C)C5)ccnn4c3)cc2)C1 [Compound 254]
IC50 [1]: < 10 nM | IC50 (human ALK2 R206H): < 100 nM

CC(C)N1CC[C@@H](c2ccc(-c3cc4c(N5CCN(C(=O)[C@H]6CC[C@H](O)CC6)CC5)ccnn4c3)cc2)C1 [Compound 419]
IC50 [1]: < 10 nM | IC50 (human ALK2 R206H): < 100 nM

CC(C)N1CCC(c2ccc(-c3cc4c(N5CCN(C(=O)[C@H]6CC[C@H](O)CC6)CC5)ccnn4c3)nc2)CC1 [Compound 432]
IC50 [1]: < 10 nM | IC50 (human ALK2 R206H): < 100 nM

CCOC1(c2ccc(-c3cc4c(N5CCN(C(=O)OC6COC6C)CC5)ccnn4c3)nc2)CCN(C(C)C)CC1 (stereo not shown) [Compound 879]
IC50 [1]: < 10 nM | IC50 (human ALK2 R206H): < 100 nM

CCNC(=O)N1CCN(c2ccnn3cc(-c4ccc([C@@H]5CCCN5C(C)C)nc4)cc23)CC1 [Compound 494]
IC50 [1]: < 10 nM | IC50 (human ALK2 R206H): < 100 nM

CCN1CCN(c2ccc(-c3cc4c(N5CCN(C(=O)C6CC6)CC5)ccnn4c3)cn2)CC1 [Compound 221]
IC50 [1]: < 10 nM | IC50 (human ALK2 R206H): 100 to 500 nM

COC1(c2ccc(-c3cc4c(N5CCN(C(=O)C6CC6)CC5)ccnn4c3)c(F)c2)CCN(C(C)C)CC1 [Compound 682]
IC50 [1]: < 10 nM | IC50 (human ALK2 R206H): < 100 nM
